In data set [1] the test system is Enterococcus faecalis. As to the kind of experiment: Antibacterial activity against Enterococcus faecalis after 24 hrs by broth microdilution method. It is filed as functional. The conditions noted are these: read-out: MIC. Background: In broth dilution the organism is exposed to a series of concentrations in liquid medium.
Data set [2] relates to Staphylococcus aureus. As to the kind of experiment: Antibacterial activity against Staphylococcus aureus Smith after 24 hrs by broth microdilution method. Type of data set: functional. The conditions noted are these: read-out: MIC.
Data set [3] relates to Staphylococcus aureus. As to the kind of experiment: Antibacterial activity against methicillin-resistant Staphylococcus aureus clinical isolate after 24 hrs by broth microdilution method. The conditions noted are these: read-out: MIC. Type of data set: functional.
The subject of data set [4] is Staphylococcus aureus. As to the kind of experiment: Antibacterial activity against methicillin-resistant and vancomycin-intermediate resistant Staphylococcus aureus clinical isolate after 24 hrs by broth microdilution method. Type of data set: functional. The settings on record: read-out: MIC.
Data set [5] deals with Staphylococcus aureus. Kind of data set: Antibacterial activity against vancomycin-intermediate resistant Staphylococcus aureus clinical isolate after 24 hrs by broth microdilution method. It is filed as functional.
The test system of data set [6] is Streptococcus pyogenes. As to the kind of experiment: Antibacterial activity against Streptococcus pyogenes C203 after 24 hrs by broth microdilution method. The conditions noted are these: C203, 24 h, read-out: MIC. Type of data set: functional.
The subject of data set [7] is Enterococcus faecalis. Kind of data set: Antibacterial activity against vancomycin A-resistant Enterococcus faecalis after 24 hrs by broth microdilution method. It is filed as functional. The settings on record: read-out: MIC.
Data set [8] has as its system Enterococcus faecium. As to the kind of experiment: Antibacterial activity against Enterococcus faecium after 24 hrs by broth microdilution method. Type of data set: functional. The conditions noted are these: read-out: MIC.
Data set [9] relates to Enterococcus faecium. As to the kind of experiment: Antibacterial activity against vancomycin A-resistant Enterococcus faecium clinical isolate after 24 hrs by broth microdilution method. It is filed as functional. The conditions noted are these: read-out: MIC.
Data set [10] relates to Escherichia coli. Kind of data set: Antibacterial activity against Escherichia coli SKF-12140 after 24 hrs by broth microdilution method. It is filed as functional. The conditions noted are these: read-out: MIC.
Data set [11] has as its system Candida albicans. Kind of data set: Antifungal activity against Candida albicans SKF-2270 after 24 hrs by broth microdilution method. Type of data set: functional. The conditions noted are these: read-out: MIC.
The nature of data set [12]: Toxicity assessed as hemolysis in erythrocytes at 180 mg/L. The conditions noted are these: human, erythrocytes; read-out: Activity. It is filed as cell-based, Erythrocyte.
Data set [13] can be described thus: Toxicity assessed as hemolysis in erythrocytes at 90 mg/L. Type of data set: cell-based, Erythrocyte. The conditions noted are these: human, erythrocytes; read-out: Activity.

Here are results for 5 molecules from ChEMBL document CHEMBL1145390, “Synthesis and preliminary biological characterization of new semisynthetic derivatives of ramoplanin” (J Med Chem, 2007).

Values after ≈ are worked out from the molar mass of the structure shown. Some results are limits rather than exact numbers.

In general, MIC refers to the least concentration at which growth counts as inhibited.

As to `COc1ccc(CC(=O)N[C@@H](CC(N)=O)C(=O)NC[C@@H]2C(=O)N[C@H](c3ccc(O)cc3)C(=O)N[C@H](CCCN)C(=O)N[C@H](C(C)C)C(=O)N[C@@H](c3ccc(O)cc3)C(=O)N[C@H](c3ccc(O)cc3)C(=O)N[C@@H]([C@@H](C)O)C(=O)N[C@@H](Cc3ccccc3)C(=O)N[C@H](CCCN)C(=O)N[C@@H](c3ccc(O[C@H]4O[C@H](CO)[C@@H](O)[C@H](O)[C@@H]4O[C@H]4O[C@H](CO)[C@@H](O)[C@H](O)[C@@H]4O)cc3)C(=O)N[C@H]([C@@H](C)O)C(=O)N[C@@H](c3ccc(O)cc3)C(=O)NCC(=O)N[C@@H](CC(C)C)C(=O)N[C@H](C)C(=O)N[C@@H](c3ccc(O)c(Cl)c3)C(=O)O[C@@H]2C(N)=O)cc1`, the MIC in data set [1] stood at 8 µg/mL (≈ 3.1 µM); in data set [2] it was 8 µg/mL (≈ 3.1 µM); in data set [3], 8 µg/mL (≈ 3.1 µM); in [4], 32 µg/mL (≈ 12.4 µM); in data set [5], 32 µg/mL (≈ 12.4 µM); in data set [6] it was 0.125 µg/mL (≈ 0.0485 µM). For the same molecule, the MIC in data set [7] was 8 µg/mL (≈ 3.1 µM); in data set [8] it was 16 µg/mL (≈ 6.21 µM); in [9], 8 µg/mL (≈ 3.1 µM); in data set [10], greater than 32 µg/mL; in data set [11], greater than 32 µg/mL. In data set [12], the hemolysis at 180 mg/L was determined as 0%. Moreover, the hemolysis at 90 mg/L in data set [13] stood at 0%.
For the molecule `CCCCCCCCC(=O)N[C@@H](CC(N)=O)C(=O)NC[C@@H]1C(=O)N[C@H](c2ccc(O)cc2)C(=O)N[C@H](CCCN)C(=O)N[C@H](C(C)C)C(=O)N[C@@H](c2ccc(O)cc2)C(=O)N[C@H](c2ccc(O)cc2)C(=O)N[C@@H]([C@@H](C)O)C(=O)N[C@@H](Cc2ccccc2)C(=O)N[C@H](CCCN)C(=O)N[C@@H](c2ccc(O[C@H]3O[C@H](CO)[C@@H](O)[C@H](O)[C@@H]3O[C@H]3O[C@H](CO)[C@@H](O)[C@H](O)[C@@H]3O)cc2)C(=O)N[C@H]([C@@H](C)O)C(=O)N[C@@H](c2ccc(O)cc2)C(=O)NCC(=O)N[C@@H](CC(C)C)C(=O)N[C@H](C)C(=O)N[C@@H](c2ccc(O)c(Cl)c2)C(=O)O[C@@H]1C(N)=O`, the MIC in data set [1] was found to be 0.06 µg/mL (≈ 0.0233 µM); in data set [2], 0.25 µg/mL (≈ 0.0973 µM); in data set [3] it was 1 µg/mL (≈ 0.389 µM); in data set [4] it was 8 µg/mL (≈ 3.11 µM); in data set [5], 4 µg/mL (≈ 1.56 µM); in data set [6], 0.125 µg/mL (≈ 0.0486 µM). Moreover, the MIC is 0.06 µg/mL (≈ 0.0233 µM) in data set [7]; 0.125 µg/mL (≈ 0.0486 µM) in data set [8]; less than 0.03 µg/mL in data set [9]; greater than 32 µg/mL in [10]; greater than 32 µg/mL in [11]. In data set [12], the hemolysis at 180 mg/L was found to be 5%. Further, the hemolysis at 90 mg/L in data set [13] was 0%.
For the molecule `CC(C)C[C@@H]1NC(=O)CNC(=O)[C@H](c2ccc(O)cc2)NC(=O)[C@@H]([C@@H](C)O)NC(=O)[C@H](c2ccc(O[C@H]3O[C@H](CO)[C@@H](O)[C@H](O)[C@@H]3O[C@H]3O[C@H](CO)[C@@H](O)[C@H](O)[C@@H]3O)cc2)NC(=O)[C@@H](CCCN)NC(=O)[C@H](Cc2ccccc2)NC(=O)[C@H]([C@@H](C)O)NC(=O)[C@@H](c2ccc(O)cc2)NC(=O)[C@H](c2ccc(O)cc2)NC(=O)[C@@H](C(C)C)NC(=O)[C@@H](CCCN)NC(=O)[C@@H](c2ccc(O)cc2)NC(=O)[C@@H](CNC(=O)[C@H](CC(N)=O)NC(=O)c2ccc(OCc3cccc(Cl)c3)cc2)[C@@H](C(N)=O)OC(=O)[C@H](c2ccc(O)c(Cl)c2)NC(=O)[C@@H](C)NC1=O`, the MIC in data set [1] came to 0.5 µg/mL (≈ 0.187 µM); in data set [2], 1 µg/mL (≈ 0.374 µM); in data set [3], 2 µg/mL (≈ 0.748 µM); in data set [4], 8 µg/mL (≈ 2.99 µM); in [5] it was 8 µg/mL (≈ 2.99 µM); in data set [6] it was 0.13 µg/mL (≈ 0.0486 µM). Besides, the minimum inhibitory concentration (MIC) was 0.13 µg/mL (≈ 0.0486 µM) in data set [7]; 0.5 µg/mL (≈ 0.187 µM) in data set [8]; 0.25 µg/mL (≈ 0.0935 µM) in [9]; greater than 32 µg/mL in data set [10]; greater than 32 µg/mL in [11]. In addition, in [12], the hemolysis at 180 mg/L is 100%. Further, in data set [13], the hemolysis at 90 mg/L turned out to be 25%.
Consider `CC(C)C[C@@H]1NC(=O)CNC(=O)[C@H](c2ccc(O)cc2)NC(=O)[C@@H]([C@@H](C)O)NC(=O)[C@H](c2ccc(O[C@H]3O[C@H](CO)[C@@H](O)[C@H](O)[C@@H]3O[C@H]3O[C@H](CO)[C@@H](O)[C@H](O)[C@@H]3O)cc2)NC(=O)[C@@H](CCCN)NC(=O)[C@H](Cc2ccccc2)NC(=O)[C@H]([C@@H](C)O)NC(=O)[C@@H](c2ccc(O)cc2)NC(=O)[C@H](c2ccc(O)cc2)NC(=O)[C@@H](C(C)C)NC(=O)[C@@H](CCCN)NC(=O)[C@@H](c2ccc(O)cc2)NC(=O)[C@@H](CNC(=O)[C@H](CC(N)=O)NC(=O)c2ccc(C#N)cc2)[C@@H](C(N)=O)OC(=O)[C@H](c2ccc(O)c(Cl)c2)NC(=O)[C@@H](C)NC1=O`, for which the MIC in [1] was 4 µg/mL (≈ 1.56 µM); in data set [2], 8 µg/mL (≈ 3.13 µM); in [3], 4 µg/mL (≈ 1.56 µM); in data set [4], 32 µg/mL (≈ 12.5 µM); in data set [5], 32 µg/mL (≈ 12.5 µM); in data set [6], 0.06 µg/mL (≈ 0.0234 µM). Further, the MIC is 8 µg/mL (≈ 3.13 µM) in [7]; 8 µg/mL (≈ 3.13 µM) in data set [8]; 4 µg/mL (≈ 1.56 µM) in data set [9]; greater than 32 µg/mL in data set [10]; greater than 32 µg/mL in data set [11]. Also, the hemolysis at 180 mg/L in [12] worked out at 3%. Further, the hemolysis at 90 mg/L in data set [13] came out at 2%.
With `CCCCCCCCc1ccc(C(=O)N[C@@H](CC(N)=O)C(=O)NC[C@@H]2C(=O)N[C@H](c3ccc(O)cc3)C(=O)N[C@H](CCCN)C(=O)N[C@H](C(C)C)C(=O)N[C@@H](c3ccc(O)cc3)C(=O)N[C@H](c3ccc(O)cc3)C(=O)N[C@@H]([C@@H](C)O)C(=O)N[C@@H](Cc3ccccc3)C(=O)N[C@H](CCCN)C(=O)N[C@@H](c3ccc(O[C@H]4O[C@H](CO)[C@@H](O)[C@H](O)[C@@H]4O[C@H]4O[C@H](CO)[C@@H](O)[C@H](O)[C@@H]4O)cc3)C(=O)N[C@H]([C@@H](C)O)C(=O)N[C@@H](c3ccc(O)cc3)C(=O)NCC(=O)N[C@@H](CC(C)C)C(=O)N[C@H](C)C(=O)N[C@@H](c3ccc(O)c(Cl)c3)C(=O)O[C@@H]2C(N)=O)cc1`, the MIC came out at 4 µg/mL (≈ 1.51 µM) in data set [1]; 8 µg/mL (≈ 3.02 µM) in data set [2]; 8 µg/mL (≈ 3.02 µM) in data set [3]; 16 µg/mL (≈ 6.05 µM) in data set [4]; 16 µg/mL (≈ 6.05 µM) in [5]; 2 µg/mL (≈ 0.756 µM) in data set [6]. In addition, the MIC in [7] is 4 µg/mL (≈ 1.51 µM); in data set [8] it was 4 µg/mL (≈ 1.51 µM); in data set [9], 4 µg/mL (≈ 1.51 µM); in data set [10] it was greater than 32 µg/mL; in data set [11], greater than 32 µg/mL. Further, the hemolysis at 180 mg/L in data set [12] is 72%. Further, the hemolysis at 90 mg/L in data set [13] amounted to 95%.
